Test results as given in publication PMC10331583, “Control of fibrosis with enhanced safety via asymmetric inhibition of prolyl‐tRNA synthetase 1” (EMBO Molecular Medicine, 2023).
Values joined by “and” are separate entries in the source; they are usually repeats but may differ in a detail not shown here. Equal values may be shown once. Read-outs that look alike come from different tables or passages of the source.

Experiments:
[1] = system: TNT Quick Coupled Transcription/Translation System (luciferase synthesis); assay type: biochemical
[2] = system: WI‐26 VA4 cells; assay: Immunoblot of cellular protein levels with different proline content; assay type: cell-based, human; conditions: Fig 2A
Method: The levels of proteins were determined by immunoblot assay. […] The lowest concentration at which protein levels started to decrease was normalized by IC50 values for collagen level and used as the y‐axis value. […] The slope and R^2 value were calculated using GraphPad Prism 7.0. […] The activation of the TGF‐β pathway was determined by monitoring the phosphorylation of SMAD2. Immunoblot images are representative of three biologically independent experiments. • The band intensities of the immunoblot images in (C) were quantified using ImageJ (n = 3; One‐way ANOVA; *P < 0.05, **P < 0.01, ***P < 0.001; mean ± SEM). Source data are available online for this figure.

[3] = system: WI‐26 VA4 cells; assay: Puromycin incorporation assay; assay type: cell-based, human
Procedure, shortened: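 WI‐26 VA4 cell lysates prepared in carbonate-bicarbonate buffer with protease inhibitor; 400 ng protein coated on ELISA plates 18 h at 4°C. Puromycin incorporated into proteins detected by antibody ELISA, absorbance 450 nm with 620 nm reference; outlier values excluded based on replicates and adjacent concentrations.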

[4] = system: WI‐26 VA4 cells; assay: Collagen ELISA (secreted pro‐collagen I)
[5] = log(inhibitor) vs. response, variable slope (four parameters), concentration in nM

O[C@H]1CCCN[C@@H]1CCCn1cnc2c(Cl)c(Cl)ccc21 [DWN12088]
TNT-luciferase % of control ([1]; 2000 nM, Experiment #1, replicates, 2 µM): 107.63 % of control and 97.97 % of control and 101.55 % of control | TNT-luciferase % of control ([1]; 2000 nM, Experiment #2, replicates, 2 µM): 104.64 % of control and 94.62 % of control and 88.50 % of control | TNT-luciferase % of control, average ([1]; 2000 nM): 99.15 % of control | TNT-luciferase % of control ([1]; 6000 nM, Experiment #1, replicates, 6 µM): 101.91 % of control and 104.41 % of control and 119.43 % of control | TNT-luciferase % of control ([1]; 6000 nM, Experiment #2, replicates, 6 µM): 96.85 % of control and 102.97 % of control and 104.64 % of control | TNT-luciferase % of control, average ([1]; 6000 nM): 105.03 % of control | TNT-luciferase % of control ([1]; 20000 nM, Experiment #1, replicates, 20 µM): 72.94 % of control (2×) and 59.71 % of control | TNT-luciferase % of control ([1]; 20000 nM, Experiment #2, replicates, 20 µM): 84.60 % of control (2×) and 85.71 % of control | TNT-luciferase % of control, average ([1]; 20000 nM): 76.75 % of control | TNT-luciferase % of control ([1]; 60000 nM, Experiment #1, replicates, 60 µM): 38.97 % of control and 46.84 % of control and 41.48 % of control | TNT-luciferase % of control ([1]; 60000 nM, Experiment #2, replicates, 60 µM): 51.21 % of control and 53.71 % of control and 53.43 % of control | TNT-luciferase % of control, average ([1]; 60000 nM): 47.61 % of control | TNT-luciferase % of control ([1]; 200000 nM, Experiment #1, replicates, 200 µM): 1.16 % of control and 1.03 % of control and 1.24 % of control | TNT-luciferase % of control ([1]; 200000 nM, Experiment #2, replicates, 200 µM): 6.68 % of control and 5.56 % of control and 5.68 % of control | TNT-luciferase % of control, average ([1]; 200000 nM): 3.56 % of control | TNT-luciferase % of control ([1]; 600000 nM, Experiment #1, replicates, 600 µM): 0.00561 % of control and 0.00168 % of control and 0.00107 % of control | TNT-luciferase % of control ([1]; 600000 nM, Experiment #2, replicates, 600 µM): 0.24 % of control and 0.28 % of control and 0.27 % of control | TNT-luciferase % of control, average ([1]; 600000 nM): 0.13 % of control | TNT-luciferase % of control ([1]; 2000000 nM, Experiment #1, replicates, 2000 µM): 0.00107 % of control and -0.00501 % of control and -0.00597 % of control | TNT-luciferase % of control ([1]; 2000000 nM, Experiment #2, replicates, 2000 µM): 0.0153 % of control and 0.00456 % of control and 0.00807 % of control | TNT-luciferase % of control, average ([1]; 2000000 nM): 0.00301 % of control | TNT-luciferase LogIC50 (best-fit value) [1, 5]: 4.702 | IC50 ([1]; log(inhibitor) vs. response, variable slope (four parameters), unit from head concentration (nM), read-out: TNT-luciferase IC50 (best-fit value)): 50300 nM | effective dose for decreasing general proteins (SMAD2, AIMP2, AMPKα, cyclin D1) compared with COL1A1 [2]: about 10 times | Puromycin, % of control, single replicate ([3]; 30000 nM, 30 µM): 67.68 % of control (2×) and 67.72 % of control (2×) and 65.74 % of control (2×) and 95.99 % of control and 94.34 % of control and 94.68 % of control | Puromycin, % of control, single replicate ([3]; 300000 nM, 300 µM): 0.28 % of control (2×) and -0.36 % of control (2×) and 0.08 % of control (2×) and 0.75 % of control and 0.84 % of control and 0.22 % of control | Puromycin, % of control, single replicate ([3]; 1000000 nM, 1000 µM): -0.0139 % of control (2×) and -0.24 % of control (2×) and 0.08 % of control (2×) and 0.39 % of control (2×) and 0.49 % of control | activity at 0.3 µM ([3]; Homo sapiens, WI26VA4, read-out: Puromycin, % of control, average, 300 nM): 104% | activity at 1 µM ([3]; Homo sapiens, WI26VA4, read-out: Puromycin, % of control, average, 1000 nM): 109% | activity at 3 µM ([3]; Homo sapiens, WI26VA4, read-out: Puromycin, % of control, average, 3000 nM): 103% | activity at 30 µM ([3]; Homo sapiens, WI26VA4, read-out: Puromycin, % of control, average, 30000 nM): 76.4% | activity at 100 µM ([3]; Homo sapiens, WI26VA4, read-out: Puromycin, % of control, average, 100000 nM): 29.7% | activity at 300 µM ([3]; Homo sapiens, WI26VA4, read-out: Puromycin, % of control, average, 300000 nM): 0.2% | activity at 1000 µM ([3]; Homo sapiens, WI26VA4, read-out: Puromycin, % of control, average, 1000000 nM): 0.1% | activity at 0.3 µM ([3]; Homo sapiens, WI26VA4, read-out: Puromycin, % of control, single replicate, 300 nM): 107% | activity at 1 µM ([3]; Homo sapiens, WI26VA4, read-out: Puromycin, % of control, single replicate, 1000 nM): 107% | activity at 3 µM ([3]; Homo sapiens, WI26VA4, read-out: Puromycin, % of control, single replicate, 3000 nM): 99.5% | activity at 10 µM ([3]; Homo sapiens, WI26VA4, read-out: Puromycin, % of control, single replicate, 10000 nM): 98.3% | activity at 100 µM ([3]; Homo sapiens, WI26VA4, read-out: Puromycin, % of control, single replicate, 100000 nM): 27.4% | IC50 ([3]; Homo sapiens, WI26VA4, read-out: Puromycin, IC50 (best-fit value)): 56.8 µM | Puromycin, HillSlope (best-fit value) ([3]; log(inhibitor) vs. response, variable slope (four parameters)): -1.616 | Puromycin, LogIC50 (best-fit value) [3, 5]: 4.754 | Collagen, % of control (single replicates per experiment) ([4]; 10 nM, 0.01 µM): 101.76 % of control | Collagen, % of control (single replicates per experiment) ([4]; 30 nM, 0.03 µM): 120.03 % of control and 114.52 % of control and 91.73 % of control and 89.16 % of control and 97.48 % of control and 99.13 % of control and 133.18 % of control and 134.10 % of control | Collagen, % of control (single replicates per experiment) ([4]; 100 nM, 0.1 µM): 111.05 % of control and 113.92 % of control and 88.23 % of control and 93.03 % of control and 102.46 % of control and 102.99 % of control and 133.45 % of control and 119.32 % of control | Collagen, % of control (single replicates per experiment) ([4]; 300 nM, 0.3 µM): 97.76 % of control and 92.78 % of control and 92.20 % of control and 87.32 % of control and 95.43 % of control and 105.10 % of control and 105.64 % of control and 109.03 % of control | Collagen, % of control (single replicates per experiment) ([4]; 1000 nM, 1 µM): 75.49 % of control and 75.29 % of control and 77.13 % of control and 68.65 % of control and 66.58 % of control and 66.40 % of control and 103.27 % of control and 103.19 % of control | Collagen, % of control (single replicates per experiment) ([4]; 3000 nM, 3 µM): 24.90 % of control and 21.92 % of control | TI (CC50/IC50 for collagen level) ([4]; Fig 1C): 10.29 | CC50/collagen IC50 ([4]; Fig 5E): 10.07 | IC50 ([4]; Homo sapiens, WI26VA4, 72 h, read-out: IC50 for collagen level): 2.02 µM | IC50 ([4]; Homo sapiens, WI26VA4, read-out: Collagen IC50 (best-fit value)): 2.02 µM | activity at 0.01 µM ([4]; Homo sapiens, WI26VA4, read-out: Collagen, % of control (single replicates per experiment), 10 nM): 101% | activity at 300 µM ([4]; Homo sapiens, WI26VA4, read-out: Collagen, % of control (single replicates per experiment), 300000 nM): 3.81% | activity at 0.01 µM ([4]; Homo sapiens, WI26VA4, read-out: Collagen, % of control, average, 10 nM, average): 101% | activity at 0.03 µM ([4]; Homo sapiens, WI26VA4, read-out: Collagen, % of control, average, 30 nM, average): 103% | activity at 0.1 µM ([4]; Homo sapiens, WI26VA4, read-out: Collagen, % of control, average, 100 nM, average): 105%
